Data on two molecules can be found in PMC8153121, “N-Alkylation of Anthracycline Antibiotics by Natural Sesquiterpene Lactones as a Way to Obtain Antitumor Agents with Reduced Side Effects” (Biomedicines, 2021).

For assay [1], the system named is RD (embryonic rhabdomyosarcoma). Briefly: MTT cell viability test, RD. It counts as cell-based, Human. Particulars: MTT, 72 h; read-out: IC50, RD. The procedure: (§1) Human cell cultures of tumor origin (A549 (lung carcinoma), HCT116 (colon adenocarcinoma), MCF7 (breast cancer), RD (embryonic rhabdomyosarcoma)), and the line of non-transformed cells HEK293 (embryonic kidney) provided by the Laboratory of Tumor Cell Genetics at the N.N. Blokhin Russian Cancer Research Institute, as well as by the Institute of Cytology of the Russian Academy of Sciences, were grown in DMEM (Gibco, Scotland, UK) and MEM (Gibco, Scotland, UK) containing fetal calf serum (10% by volume) (ThermoFisher Scientific, Paisley, UK), L-glutamine (2 mM) (Gibco, Scotland, UK), and penicillin-streptomycin (1% by volume) (PanEco, Moscow, Russia).
(§2) Cellular viability was determined by the MTT test. […] After 24 h of incubation, various concentrations of the test compounds dissolved in DMSO (≤1%) were added to the cell cultures, the solvent was added to the control wells in an equal volume, and then the cells were cultured under the same conditions for 72 h. After the incubation time, MTT (3-(4,5-dimethylthiazol-2-yl)-2,5-diphenyltetrazolium bromide, 5 mg/mL) was added to each well, and the plates were further incubated for 2 h (until a characteristic color appeared). Then, the formazan granules were dissolved in DMSO.
(§3) Using a plate analyzer (Cytation3, BioTech Instruments Inc., USA), the optical density was determined at λ = 530 nm.

Assay [2] deals with MCF7 (breast cancer). The experiment in a line: MTT cell viability test, MCF7. It counts as cell-based, Human. As to conditions: MTT, 72 h; read-out: IC50, MCF7. As to the method: as §1, §2, §3
(In general: Formazan colour is commonly taken as a measure of viable cells.)

In assay [3] the test system is HeLa cervical tumor cell line. Briefly: Glycolysis stress test (Seahorse, extracellular acidification rate). It counts as cell-based. Particulars: HeLa cells, test substances 30 μM. The procedure: The ability of the studied compounds to modulate anaerobic glycolysis was investigated using the Agilent Seahorse XF96e Analyzer (Seahorse Bioscience, Billerica, MA, USA) according to the level of hydrogen proton production in the samples on the HeLa cervical tumor cell line by the glycolysis stress test.
HeLa cells in the exponential growth phase were plated into a 96-well cell culture microplate Seahorse (the density of the cell culture was 3 × 10^4/well). After 24 h, the rate of medium extracellular acidification by cells treated with the test compounds was recorded in real time during the sequential injection of modulators: glucose (10 mM) (Dia-M, Moscow, Russia), oligomycin (1 μM) (Sigma Aldrich, Saint Louis, USA), 2-fluoro-2-deoxy-D-glucose (25 mM) (Sigma Aldrich, Saint Louis, USA). This allowed us to estimate the glycolysis intensity in cells by three main parameters of glycolytic function: glycolysis by adding saturating amounts of glucose to the system, glycolytic capacity by the introduction of oligomycin, and glycolytic reserve by using the inhibitor of this glycolysis 2-fluoro-2-deoxy-D-glucose.

For assay [4], the system named is HEK293 (embryonic kidney). The experiment in a line: MTT cell viability test, non-transformed HEK293. The class given is cell-based, Human. As to conditions: MTT, 72 h, non-transformed cells; read-out: IC50, HEK293. As to the method:
as §1, §2, §3

In assay [5] the test system is rat heart mitochondria. The experiment in a line: Mitochondrial swelling. Particulars: rat heart mitochondria 0.5 mg/mL, compounds at 100 μM, Ca2+ 25 μM. It counts as biochemical. The procedure: (§4) Rat heart mitochondria were isolated by differential centrifugation using ice-cold buffer containing KCl (120 mM) and HEPES (20 mM), pH = 7.4, and a trypsin inhibitor. The mitochondrial yield ranged from 5 to 10 mg/mL of protein in the heart sediment. Mitochondria were stored in plastic containers at 4 °C.
Mitochondrial swelling was recorded by the light transmission of the rat heart mitochondrial suspension at λ = 540 nm using a Victor 3 plate analyzer (Perkin Elmer, Germany). The swelling rate was estimated as △A540/min and was calculated as the tangent of the angle of the steepest dependence curve part △A540 versus time.

For assay [6], the system named is HCT116 (colon adenocarcinoma). Briefly: MTT cell viability test, HCT116. It counts as cell-based, Human. Particulars: MTT, 72 h; read-out: IC50, HCT116. The procedure:
as §1, §2, §3

The target of assay [7] is T1, cytochrome-c-oxidase complex of the mitochondrial respiratory chain (IV) (Rattus norvegicus, UniProt P00406+P05503+P05505).
T1 construct: Rat heart mitochondria were isolated by differential centrifugation; from tissue; host or cells: rat heart mitochondria
T1 sequence (P00406 whole entry, other chains not shown): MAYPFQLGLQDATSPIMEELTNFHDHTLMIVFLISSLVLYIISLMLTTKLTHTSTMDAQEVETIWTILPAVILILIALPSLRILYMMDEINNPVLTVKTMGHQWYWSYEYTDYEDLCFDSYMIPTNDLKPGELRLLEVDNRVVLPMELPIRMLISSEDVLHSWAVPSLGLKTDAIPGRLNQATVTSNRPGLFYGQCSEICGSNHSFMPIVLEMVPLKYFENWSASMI
T1 sequence (P05505 whole entry, other chains not shown): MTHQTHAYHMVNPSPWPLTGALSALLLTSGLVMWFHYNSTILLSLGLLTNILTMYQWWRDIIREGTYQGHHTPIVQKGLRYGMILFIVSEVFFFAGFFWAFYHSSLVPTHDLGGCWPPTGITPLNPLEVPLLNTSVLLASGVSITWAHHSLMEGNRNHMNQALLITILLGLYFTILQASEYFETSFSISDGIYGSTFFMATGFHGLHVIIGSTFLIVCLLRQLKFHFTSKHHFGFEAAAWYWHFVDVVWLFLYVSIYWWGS
The experiment in a line: Respiratory chain complex IV, OCR of isolated rat heart mitochondria (Seahorse). Particulars: isolated rat heart mitochondria 10 μg/well, compounds at 30 μM. It counts as biochemical. The procedure: as §4
(§5) The effect of the compounds on the functioning of the electron transport chain complexes was carried out using an Agilent Seahorse XF96e Analyzer (Seahorse Bioscience, Billerica, MA, USA) according to their ability to change the rate of oxygen uptake by isolated rat heart mitochondria (10 μg/well). The following modulators were used: activators of complex I of the electron transport chain, NADH dehydrogenase,—glutamate/malate; rotenone (2 μM) (Sigma Aldrich, Saint Louis, USA)—a tissue respiration blocker that stops the transfer of electrons from the reduced form of NADH to cytochrome b, was used as complex I inhibitor; potassium succinate ([…]) (Dia-M, Moscow, Russia), which is a substrate of complex II of the electron transport chain, made it possible to assess mitochondrial respiration mediated by succinate dehydrogenase; complex III (ubiquinol-cytochrome c-oxidoreductase) inhibitor—a blocker of cellular respiration antimycin A (Sigma Aldrich, Saint Louis, USA), as well as ascorbate/TMPD (0.5 μM) (Sigma Aldrich, Saint Louis, USA), allowed us to evaluate the cytochrome-c-oxidase mediated respiration of organelles.

The test system of assay [8] is A549 (lung carcinoma). The experiment in a line: MTT cell viability test, A549. As to conditions: MTT, 72 h; read-out: IC50, A549. It counts as cell-based, Human. As to the method:
as §1, §2, §3

Assay [9] deals with T2, complex II of the electron transport chain (Rattus norvegicus, UniProt P21913+Q641Z9+Q6PCT8+Q920L2).
T2 construct: Rat heart mitochondria were isolated by differential centrifugation; from tissue; host or cells: rat heart mitochondria
T2 sequence (Q920L2 35-656): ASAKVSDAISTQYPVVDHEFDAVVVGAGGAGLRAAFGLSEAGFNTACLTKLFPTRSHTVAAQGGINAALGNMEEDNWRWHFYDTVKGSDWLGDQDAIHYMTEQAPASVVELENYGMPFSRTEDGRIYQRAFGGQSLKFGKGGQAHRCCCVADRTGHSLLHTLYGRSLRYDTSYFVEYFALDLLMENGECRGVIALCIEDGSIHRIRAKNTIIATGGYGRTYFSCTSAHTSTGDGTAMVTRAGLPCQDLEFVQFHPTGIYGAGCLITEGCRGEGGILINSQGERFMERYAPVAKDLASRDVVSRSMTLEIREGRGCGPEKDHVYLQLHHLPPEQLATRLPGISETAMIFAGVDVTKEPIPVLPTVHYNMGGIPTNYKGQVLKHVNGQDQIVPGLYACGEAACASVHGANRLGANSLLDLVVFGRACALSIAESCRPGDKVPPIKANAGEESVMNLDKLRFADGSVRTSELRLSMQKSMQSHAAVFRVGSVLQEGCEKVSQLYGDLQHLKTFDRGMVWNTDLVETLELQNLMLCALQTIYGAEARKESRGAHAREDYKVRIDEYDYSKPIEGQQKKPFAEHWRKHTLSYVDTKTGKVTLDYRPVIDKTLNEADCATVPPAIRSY
T2 sequence (P21913 31-282): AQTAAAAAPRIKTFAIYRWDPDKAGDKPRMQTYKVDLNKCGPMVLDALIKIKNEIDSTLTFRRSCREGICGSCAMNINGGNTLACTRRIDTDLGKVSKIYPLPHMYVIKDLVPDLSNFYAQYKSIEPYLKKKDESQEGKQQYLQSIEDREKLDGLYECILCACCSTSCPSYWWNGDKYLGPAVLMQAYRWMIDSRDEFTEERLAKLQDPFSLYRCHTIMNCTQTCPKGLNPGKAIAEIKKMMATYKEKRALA
T2 sequence (Q641Z9 30-169 limits assumed): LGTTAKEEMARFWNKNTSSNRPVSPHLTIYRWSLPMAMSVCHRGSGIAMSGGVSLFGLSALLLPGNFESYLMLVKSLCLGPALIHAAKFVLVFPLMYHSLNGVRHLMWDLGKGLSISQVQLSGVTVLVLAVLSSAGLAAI
T2 sequence (Q6PCT8 57-159): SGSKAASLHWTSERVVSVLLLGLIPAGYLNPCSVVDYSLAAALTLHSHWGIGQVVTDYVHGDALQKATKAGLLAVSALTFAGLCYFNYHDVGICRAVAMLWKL
The experiment in a line: Respiratory chain complex II, OCR of isolated rat heart mitochondria (Seahorse). As to conditions: isolated rat heart mitochondria 10 μg/well, compounds at 30 μM. The class given is biochemical. As to the method: as §4, §5

As for `COc1cccc2c1C(=O)c1c(O)c3c(c(O)c1C2=O)C[C@@](O)(C(C)=O)C[C@@H]3O[C@H]1C[C@H](NC[C@H]2C(=O)O[C@@H]3C[C@@]4(C)CCCC(C)=C4C[C@@H]32)[C@H](O)[C@H](C)O1` [Compound 3b], the 50% inhibitory concentration (IC50) in assay [1] came to 0.59 ± 0.05 µM; in assay [2], 1.24 ± 0.23 µM; in [4] it was 6.37 ± 0.24 µM; in assay [6], 1.01 ± 0.01 µM; in assay [8], 1.42 ± 0.05 µM. Further, the “Effect on glycolytic function (extracellular acidification rate)” value in [3] is reported as “most pronounced ability to reduce the acidification rate of the medium by cells”. The “Mitochondrial Swelling, % of Ca2+-Induced Swelling” value in [5] was 26.45 ± 7.14%. In assay [7], the “Work of Respiratory Chain Complexes, % Decrease in OCR of Control, IV” value is on record as “— (“—” indicates activity absence for compounds (≤10%) in a particular test)”.

Consider `COc1cccc2c1C(=O)c1c(O)c3c(c(O)c1C2=O)CC(O)(C(=O)CO)CC3OC1CC(NCC2C(=O)OC3CC4(C)CCCC(C)C45OC5C32)C(O)C(C)O1` (centres unmarked) [Compound 5a], for which the IC50 in [1] came to 2.47 ± 0.07 µM; in assay [2] it was 3.03 ± 0.07 µM; in [4], 4.5 ± 0.32 µM; in assay [6], 2.52 ± 0.02 µM; in assay [8], 4.52 ± 0.57 µM. In addition, the “Effect on glycolytic function (extracellular acidification rate)” value in assay [3] is “most pronounced ability to reduce the acidification rate of the medium by cells”. The “Work of Respiratory Chain Complexes, % Decrease in OCR of Control, II” value in assay [9] is on record as “— (“—” indicates activity absence for compounds (≤10%) in a particular test)”. Also, in [5], the “Mitochondrial Swelling, % of Ca2+-Induced Swelling” value is on record as “— (“—” indicates activity absence for compounds (≤10%) in a particular test)”. Besides, in assay [7], the “Work of Respiratory Chain Complexes, % Decrease in OCR of Control, IV” value was 23.99 ± 4.41%.

For orientation: IC50 means the point on the concentration scale where inhibition reaches its midpoint.
